{
  "source": "patent US20130324437A1",
  "about": "“METHOD FOR IDENTIFYING ANTIMICROBIAL COMPOUNDS AND DETERMINING ANTIBIOTIC SENSITIVITY” (THE REGENTS OF THE UNIVERSITY OF CALIFORNIA, priority 2010, published 2013)",
  "key": {"[1]": {"tested_on": "E. coli strains JP750 or W3110", "assay": "Determination of MIC (growth in LB with antibiotic)", "assay_type": "cell-based", "details": "Escherichia coli, read-out: minimal inhibitory concentration (MIC)", "procedure": "The minimal inhibitory concentration (MIC) of each antibiotic was determined for E. coli strains JP750 or W3110, and for Bacillus subtilis strain PY79. A test tube containing 5 ml of LB was inoculated with a single colony and grown until the culture reached a density of approximately 2×10^8 cells/ml. Small inoculums (20 μl) of this culture were then diluted into LB containing various concentrations of antibiotic ranging from 0 to 200 μg/ml and the cultures were incubated overnight at 30° C. The MIC was the lowest concentration that blocked growth."}, "[2]": {"tested_on": "E. coli strain JP750", "assay_type": "cell-based, Escherichia coli", "details": "for chromosome morphology: 2 hours treatment; for chromosomes exhibiting doughnut or ring shape: lethal dose (MIC), 2 hours, n=50; for cell length: cell elongation, FIG. 2 / FIG. 3", "procedure": "The dose-dependent cytological profiles for the various classes of antibiotics was determined. In general, a series of cultures of the appropriate strain were grown in LB at 30° C. until the cultures reached a density of approximately 2×10^8 cells/ml, at which point the compound of interest was added so that the final concentrations ranged from 0 to 200 μg/ml. For each compound, samples representing ⅕×, 1× and 5× the MIC were examined. Samples were taken at various times after addition of drug (ranging from 0.2 to 3 hours). The cells were stained with FM 4-64 (1 μg/ml) to visualize the cell membranes and DAPI (5 μg/ml) to visualize the chromosome (Pogliano et al. (1999) Mol. Microbiol. 31:1149).\nImages of each stain and any fluorescently-tagged fusion protein present in the strain were then captured using a high resolution microscope. Cell length and width, chromosome length and shape, distance of the chromosome from each cell pole, the number of chromosomes per cell, and the presence and distribution of GFP (or GFP fusions) present within the cells were measured.\nStrain JP750 expresses a SeqA-GFP fusion from an IPTG dependent promoter. SeqA-GFP forms fluorescent foci that indicate the position of DNA replication forks/hemimethylated DNA within the cell (Brendler et al. (2000) EMBO 19:6249). After two hours of growth, samples were taken, stained with FM 4-64 (1 μg/ml) to visualize the cell membranes, and DAPI (5 μg/ml) to visualize the chromosome."}, "[3]": {"tested_on": "Escherichia coli and Bacillus subtilis cells", "assay": "Summary of cytological profiles by mechanism of action (FIG. 1)", "assay_type": "cell-based", "details": "example compound of the MOA class", "procedure": "FIG. 1. Summary of cytological profiles for drugs with the indicated mechanisms of action (MOA).\nTo determine if different classes of antimicrobials can be distinguished based on cytological parameters, comparative cytological analysis of Escherichia coli and Bacillus subtilis cells treated with several different classes of antibiotics was performed. […] Also included were nonspecific inhibitors such as bleach, ethidium bromide, and sodium docecyl sulfate. […] This analysis is expanded to molecules with unknown MOAs as described below."}, "[4]": {"tested_on": "gram positive bacteria and the E. coli imp mutant", "details": "Kang et al. (2009); Pache & Champman (1972); cited from earlier work"}, "[5]": {"tested_on": "E. coli imp strain", "assay": "Cytological profiling of E. coli imp strain (DAPI staining intensity)", "assay_type": "cell-based, Escherichia coli", "details": "10 minute exposure, FIG. 10", "procedure": "FIG. 10. Measurements of DAPI staining for single cells after 10 minute exposure to nisin, Spirohexenolide A, chlorothricin, and DMSO. […] Cells treated with nisin, SpiroA, and chlorothricin show increased fluorescence comparted to untreated control.\nCytological profiling was used to determine the MOA of spirohexenolide A. A culture of the E. coli imp strain was grown in LB media at 30° C. and spirohexenolide A was added at various concentrations. After either 10 minutes or two hours, samples were stained with FM 4-64 and DAPI for examination with a fluorescence microscope. The cytological profile of spirohexenolide A was identical to that for nisin, a compound that forms channels in the membrane. Chromosome stains such as DAPI and Sytox green are partially excluded from the cell by the cytoplasmic membrane in untreated cells, but are taken up in cells treated with permeablizers such as nisin."}, "[6]": {"tested_on": "Bacillus subtilis", "assay": "Cytological profiling of Bacillus subtilis (FM 4-64, DAPI, Sytox Green)", "assay_type": "cell-based", "details": "FIG. 8", "procedure": "(§1) FIG. 8. Affect of various treatments on Bacillus subtilis cell architecture and permeability. (A-J) Cytological profiling. Cells were stained with the membrane stain FM 4-64 (red) and the membrane impermeable nucleotide stains Sytox Green (green) and DAPI (blue) and visualized 2 hours after treatment unless otherwise noted. […] Cells imaged after 1 hr of treatment. […] Cells were imaged after 8 hours. (K) Cell permeability as assessed by Sytox staining intensity per pixel.\nThe effects of these drugs on the Gram positive bacterium Bacillus subtilis was determined using the fluorescent membrane stain FM 4-64 and two nucleotide stains that are membrane impermeable (DAPI and Sytox)."}, "[7]": {"tested_on": "proton motive force (PMF)", "assay": "DiSC3(5) fluorometer assay of proton motive force", "assay_type": "cell-based, Bacillus subtilis", "details": "vancomycin at the MIC", "procedure": "as §1\nThe fluorescent stain DiSC3(5) was used in a fluorometer assay, in which cells with a decreased PMF show increased fluorescence."}, "[8]": {"tested_on": "E. coli", "assay": "Growth curve (optical density at 600 nm)", "assay_type": "cell-based, Escherichia coli"}, "[9]": {"tested_on": "E. coli strain JP750", "details": "Pogliano et al. 1997; cited from earlier work"}},
  "note": "Where two headings read alike, the source gives them in different places.",
  "data": [
    {"molecule": "NC[C@H]1O[C@H](O[C@H]2[C@H](O)[C@@H](O[C@H]3O[C@H](CO)[C@@H](O)[C@H](N)[C@H]3O)[C@H](N)C[C@@H]2N)[C@H](O)[C@@H](O)[C@@H]1O", "note": "[kanamycin]", "values": [
      {"measurement": "MIC", "setting": "[1]; LB, overnight at 30° C.", "result": 50, "unit": "mg/L"}
    ]},
    {"molecule": "[H]/N=C(/N)N[C@H]1[C@H](O)[C@@H](O)[C@H](O[C@@H]2O[C@@H](C)[C@](O)(C=O)[C@H]2O[C@@H]2O[C@@H](CO)[C@H](O)[C@@H](O)[C@@H]2NC)[C@@H](N/C(N)=N\\[H])[C@@H]1O", "note": "[streptomycin]", "values": [
      {"measurement": "chromosome morphology", "setting": "[2]", "result": "condensed chromosomes but not ring formation"},
      {"measurement": "MIC", "setting": "[1]; LB, overnight at 30° C.", "result": 50, "unit": "mg/L"}
    ]},
    {"molecule": "polymyxin B", "values": [
      {"measurement": "cytological profile compared with reference", "setting": "[2]; two hours at the MIC", "result": "cytological profile similar to CHIR-090"}
    ]},
    {"molecule": "O=C(N[C@H](CO)[C@H](O)c1ccc([N+](=O)[O-])cc1)C(Cl)Cl", "note": "[chloramphenicol]", "values": [
      {"measurement": "chromosome morphology", "setting": "[2]", "result": "caused chromosomes to form rings"},
      {"measurement": "distance between edge of chromosome and cell pole", "setting": "[2]; lethal dose (5 μg/ml), two hours", "result": "dramatic increase"},
      {"measurement": "chromosomes exhibiting doughnut or ring shape", "setting": "[2]", "result": 98, "unit": "%"},
      {"measurement": "MIC", "setting": "[1]; LB, overnight at 30° C.", "result": 5, "unit": "mg/L"},
      {"measurement": "cytological profile (FIG. 1 summary)", "setting": "[3]", "result": "leads to a toroidal chromosome and wider cells"}
    ]},
    {"molecule": "CC1=C[C@]2(C)/C=C(C)/C=C/C[C@@H](O)/C=C3C=C/C(=C4\\C(=O)O[C@]2(C[C@@H]1C)C4=O)OC/3", "note": "[Spirohexenolide A]", "values": [
      {"measurement": "antibacterial spectrum", "setting": "[4]", "result": "active against gram positive bacteria and the E. coli imp mutant"},
      {"measurement": "DAPI staining intensity relative to untreated (WT) cells", "setting": "[5]", "result": 5, "unit": "×"}
    ]},
    {"molecule": "[Na+].[O-]Cl", "note": "[bleach]", "values": [
      {"measurement": "cytological profile (FIG. 1 summary)", "setting": "[3]", "result": "causes the chromosome to condense into a dramatic ribbon-like structure"}
    ]},
    {"molecule": "N#CC(C#N)=NNc1cccc(Cl)c1", "note": "[CCCP]", "values": [
      {"measurement": "cytological phenotype (membrane, chromosome, permeability)", "setting": "[6]", "result": "cells with uneven membrane staining and decondensed chromosomes"},
      {"measurement": "effect on proton motive force / membrane polarization", "setting": "[7]", "result": "rapidly depolarizes the membranes"}
    ]},
    {"molecule": "COc1ccc(Cl)c(C)c1C(=O)O[C@@H]1C[C@H](O[C@H]2[C@H](O)C[C@H](O[C@H]3CCC[C@@H]4[C@@H]3C=C[C@H]3CCCC/C=C/[C@@H]5C=C(C(=O)O)[C@H](C)C[C@]56OC(=O)C(=C6O)OC(=O)[C@@]43C)O[C@@H]2C)O[C@H](C)[C@H]1O", "note": "[chlorothricin]", "values": [
      {"measurement": "antibacterial spectrum", "setting": "[4]", "result": "active against gram positive bacteria and the E. coli imp mutant"},
      {"measurement": "DAPI staining", "setting": "[5]", "result": "increased DAPI staining"}
    ]},
    {"molecule": "C[C@@H](O)[C@H](NC(=O)c1ccc(C#Cc2ccc(CN3CCOCC3)cc2)cc1)C(=O)NO", "note": "[CHIR-090]", "values": [
      {"measurement": "cytological profile (FIG. 1 summary)", "setting": "[3]", "result": "produces chains of cells with increased permeability"}
    ]},
    {"molecule": "CCn1cc(C(=O)O)c(=O)c2ccc(C)nc21", "note": "[nalidixic acid]", "values": [
      {"measurement": "chromosome morphology", "setting": "[2]", "result": "elongated chromosomes"},
      {"measurement": "SeqA-GFP foci distribution", "setting": "[2]; LB, 30° C., FIG. 2", "result": "highly elongated chromosomes in which the SeqA foci are clustered together"},
      {"measurement": "cell length", "setting": "[2]", "result": "caused elongation"},
      {"measurement": "MIC", "setting": "[1]", "result": 0.5, "unit": "mg/L"},
      {"measurement": "cytological profile (FIG. 1 summary)", "setting": "[3]", "result": "produces elongated cells with centrally localized and fragmented DNA"},
      {"measurement": "effect on growth (optical density at 600 nm)", "setting": "[8]; five-fold below the MIC", "result": "no detectable effect on growth"},
      {"measurement": "effect on growth", "setting": "[8]; lethal dose (1×MIC)", "result": "reduced growth"}
    ]},
    {"molecule": "nisin", "values": [
      {"measurement": "cytological profile (FIG. 1 summary)", "setting": "[3]", "result": "show increased permeability at early times"},
      {"measurement": "cytological phenotype (membrane, chromosome, permeability)", "setting": "[6]", "result": "increased DAPI and Sytox staining"},
      {"measurement": "DAPI staining intensity relative to untreated (WT) cells", "setting": "[5]", "result": 5, "unit": "×"},
      {"measurement": "effect on proton motive force / membrane polarization", "setting": "[7]", "result": "rapidly collapse the proton motive force (PMF)"}
    ]},
    {"molecule": "CC1=C(C(=O)O)N2C(=O)[C@@H](NC(=O)[C@H](N)c3ccccc3)[C@H]2SC1", "note": "[cephalexin]", "values": [
      {"measurement": "cell length", "setting": "[2]", "result": "elongated"},
      {"measurement": "chromosome shape", "setting": "[9]", "result": "chromosome shape is not affected"},
      {"measurement": "cytological profile (FIG. 1 summary)", "setting": "[3]", "result": "produces elongated cells with multiple chromosomes"}
    ]},
    {"molecule": "CC1(C)S[C@@H]2[C@H](NC(=O)Cc3ccccc3)C(=O)N2[C@H]1C(=O)O", "note": "[penicillin G]", "values": [
      {"measurement": "cytological profile (FIG. 1 summary)", "setting": "[3]", "result": "causes chromosome condensation and lysis"},
      {"measurement": "cytological phenotype (membrane, chromosome, permeability)", "setting": "[6]", "result": "cells with condensed chromosomes that lyse at various times"}
    ]},
    {"molecule": "CN(C)[C@@H]1C(O)=C(C(N)=O)C(=O)[C@@]2(O)C(O)=C3C(=O)c4c(O)cccc4[C@@](C)(O)[C@H]3C[C@@H]12", "note": "[tetracycline]", "values": [
      {"measurement": "chromosomes exhibiting doughnut or ring shape", "setting": "[2]", "result": 98, "unit": "%"},
      {"measurement": "MIC", "setting": "[1]; LB, overnight at 30° C.", "result": 20, "unit": "mg/L"}
    ]},
    {"molecule": "COc1cc(Cc2cnc(N)nc2N)cc(OC)c1OC", "note": "[trimethoprim]", "values": [
      {"measurement": "cytological profile (FIG. 1 summary)", "setting": "[3]", "result": "condense the chromosome without affecting cell width"}
    ]},
    {"molecule": "CN[C@H](CC(C)C)C(=O)N[C@H]1C(=O)N[C@@H](CC(N)=O)C(=O)N[C@H]2C(=O)N[C@H]3C(=O)N[C@H](C(=O)N[C@H](C(=O)O)c4cc(O)cc(O)c4-c4cc3ccc4O)[C@H](O)c3ccc(c(Cl)c3)Oc3cc2cc(c3O[C@@H]2O[C@H](CO)[C@@H](O)[C@H](O)[C@H]2O[C@H]2C[C@](C)(N)[C@H](O)[C@H](C)O2)Oc2ccc(cc2Cl)[C@H]1O", "note": "[vancomycin]", "values": [
      {"measurement": "cytological profile (FIG. 1 summary)", "setting": "[3]", "result": "produces large internal membrane vesicles"},
      {"measurement": "cytological phenotype (membrane, chromosome, permeability)", "setting": "[6]", "result": "internal membrane vesicles and increased DAPI and Sytox permeability in a subset of the cells"},
      {"measurement": "effect on proton motive force / membrane polarization", "setting": "[7]", "result": "no effect on PMF"}
    ]}
  ]
}
